Read-outs that look alike come from different tables or passages of the source. Residues, ends and D or L forms follow the SMILES beside them. *: point of attachment. Cbz = O=C(OCc1ccccc1)*; CH2F = FC*
How the values were obtained:
[1] = tested on: outer hair cells (OHCs) in mouse cochlear explants; assay: Protection against cisplatin-induced hair cell loss in neonatal (P3) mouse cochlear explants; type: cell-based; conditions: for OHC survival: 24 hr cisplatin co-treatment; for IC50: read-out: Mouse Explant IC50; for OHCs protected against cisplatin (For x%): level of protection to which the stated explant IC50 refers; for Explant Cisplatin LD50: LD50, unnumbered table
[2] = tested on: hair cells in zebrafish lateral line neuromasts; assay: Protection against cisplatin-induced hair cell loss in zebrafish lateral lines in vivo; conditions: 5-dpf larvae, 5 μM cisplatin
[3] = tested on: hair cells in zebrafish lateral line neuromasts; conditions: for Zebrafish LD50: 5-dpf larvae
Experimental: The experiments were performed with 5-dpf larval zebrafish of the *AB wild-type strain. Dose-response studies were performed to find the cisplatin concentration at which most of the hair cells in each neuromast were killed in the absence of a protective compound and at the same DMSO concentration (<0.2%).
Experiments were performed in 24-well plates with 5 fish per well in volumes of 1-2 mL. Fish were incubated with 5 μM and stained with 0.005% DASPEI vital dye for 15 minutes. After two washes with egg water, fish were visualized in an epiflourescence microscope. […] Results were plotted as percent survival of hair cells in the cisplatin-treated fish relative to the untreated fish (FIG. 4A-E).

HEI-OC1 cells [4] = tested on: HEI-OC1 cells
[5] = tested on: hair cells in mouse cochlear explants
HEI-OC1 cells [6] = assay: Caspase-3/7 Glo assay, cisplatin-induced apoptosis in HEI-OC1 cell line
[7] = tested on: mouse medulloblastoma neurosphere lines and human neuroblastoma cell lines; assay: Interference with cisplatin's killing function in tumor cell lines (Cell Titer Glo); type: cell-based; conditions: 48 hours, cisplatin 23 μM, compound 3×IC50
Experimental: FIG. 11 addresses interference with cisplatin's killing function in tumors. Four neurosphere lines derived from mouse medulloblastoma (MB) and two human neuroblastoma (NB) cell lines were tested. HEI-OC1 cell line was tested as controls.
Table 1 lists the top 18 compound hits in the screen in terms of high potency and low toxicity. The top ten compounds were further evaluated by a viability assay (Cell Titer Glo, Promega) in medulloblastoma neurosphere cell lines and neuroblastoma cell lines to test whether they inhibit the ability of cisplatin to kill the tumor cells. The majority had no antagonistic effect on cisplatin's antitumor activity (data not shown) and are therefore safe to use systemically together with cisplatin during chemotherapy to protect against cisplatin-induced hearing loss.

mouse cochlear explants = conditions: cited from earlier work
[8] = cited from earlier work
CDK1, 2, 4, 6 and 9 = conditions: range over the kinases; cited from earlier work
[9] = Mus musculus, HEI-OC1, 22 h, read-out: HEI-OC1 IC50
[10] = P3 cochlear explants, 50 μM cisplatin, 24 hrs
[11] = Cell Titer Glo, compound without cisplatin, 40 μM to 40 nM, 22 hrs
[12] = read-out: HEI-OC1 IC50, Caspase-3/7 Glo, 50 μM cisplatin, 22 hrs
[13] = Mus musculus, 24 h, P3 cochlear explants, 50 μM cisplatin, 24 hrs
[14] = Mus musculus, HEI-OC1, read-out: HEI-OC1 IC50

Compound: Cc1oncc1C(=O)Nc1ccc(C(F)(F)F)cc1 [Compound 1, Leflunomide]
- OHC survival [1]: 100%
- Zebrafish IC50 [2]: No
- Zebrafish LD50 [3]: >5.0 µM
- HEI-OC1 LD50 (HEI-OC1 cells [4]; mouse, 22 h): >40 µM
- Mouse Explant LD50 ([5]; mouse, 24 h): >50 µM
- IC50 (HEI-OC1 cells [6]; [9]): 3000 nM

Compound: O=C([O-])c1cc(/N=N/c2ccc(O)c(C(=O)[O-])c2)ccc1O.[Na+].[Na+] [Compound 2, Olsalazine sodium]
- IC50 [1, 10]: ~30000 nM
- OHCs protected against cisplatin (For x%) [1]: (For 50%)
- Zebrafish IC50 [2]: No
- Zebrafish LD50 [3]: >30 µM
- HEI-OC1 LD50 (HEI-OC1 cells [4]; [11]): >40 µM
- Mouse Explant LD50 ([5]; P3 cochlear explants): >30 µM
- IC50 (HEI-OC1 cells [6]; [12]): 6200 nM

Compound: CCOc1cc2ncc(C#N)c(Nc3ccc(F)c(Cl)c3)c2cc1NC(=O)/C=C/CN(C)C [Compound 3, Pelitinib]
- IC50 [1, 13]: ~6000 nM
- OHCs protected against cisplatin (For x%) [1]: (For 50%)
- Zebrafish IC50 [2]: No
- Zebrafish LD50 [3]: <27 µM
- HEI-OC1 LD50 (HEI-OC1 cells [4]; mouse, 22 h): >40 µM
- Mouse Explant LD50 ([5]; mouse, 24 h): <13 µM
- IC50 (HEI-OC1 cells [6]; [9]): 600 nM

Compound: CCCCCC[C@H]1C(=O)OC(C)C(NC(=O)c2cccc(NC=O)c2O)C(=O)O[C@@H](C)C1OC(=O)CC(C)C (stereo partly drawn) [Compound 5, Antimycin A]
- IC50 [1, 13]: ~1800 nM
- OHCs protected against cisplatin (For x%) [1]: (For 31%)
- Zebrafish IC50 [2]: No
- Zebrafish LD50 [3]: <0.6 µM
- HEI-OC1 LD50 (HEI-OC1 cells [4]; [11]): >10 µM
- Mouse Explant LD50 ([5]; P3 cochlear explants): <4 µM
- IC50 (HEI-OC1 cells [6]; [9]): 40 nM

Compound: O=c1cc(CN2CCOCC2)occ1OCCCCCSc1ccnc2cc(C(F)(F)F)ccc12 [Compound 7, EHT1864]
- IC50 [1, 13]: ~10000 nM
- OHCs protected against cisplatin (For x%) [1]: (For 58%)
- Zebrafish IC50 [2]: No
- Zebrafish LD50 [3]: <1.0 µM
- interference with cisplatin anti-tumor activity [7]: no interference in all tumor cell lines (except one for Compound 7)
- HEI-OC1 LD50 (HEI-OC1 cells [4]; mouse, 22 h): >20 µM
- Mouse Explant LD50 ([5]; mouse, 24 h): <20 µM
- IC50 (HEI-OC1 cells [6]; [9]): 2000 nM

Compound: CC[C@H](CO)Nc1nc(NCc2ccccc2O)c2ncn(C(C)C)c2n1 [Compound 9, Olomoucine II]
- protection against cisplatin-induced hair cell loss in cochlear explants ([1]; 50 μM cisplatin, 24 hrs): protect against cisplatin-induced hair cell loss
- OHC survival [1]: 100%
- Explant Cisplatin LD50 [1]: 3,000 nM
- Zebrafish IC50 [2]: No
- Zebrafish LD50 [3]: >50 µM
- HEI-OC1 LD50 (HEI-OC1 cells [4]; mouse, 22 h): >40 µM
- Explant Cisplatin LD50 ([5]; mouse, 24 h): > 33000 nM
- Mouse Explant LD50 ([5]; mouse, 24 h): >33 µM
- IC50 (HEI-OC1 cells [6]; [9]): 800 nM
- IC50 (HEI-OC1 cells [6]; [14]): 800 nM

Compound: Sc1nc2ccccc2s1 [Compound 10, 2-Mercapto-benzothiazole]
- IC50 [1, 13]: > 49000 nM
- HEI-OC1 LD50 (HEI-OC1 cells [4]; [11]): >10 µM
- IC50 (HEI-OC1 cells [6]; [9]): 7000 nM

Compound: O=C1C=C2C(=CCOC2O)O1 (stereo not drawn) [Compound 11, Patulin]
- IC50 ([1]; Mus musculus, 24 h): 3000 to 9000 nM
- IC50 (HEI-OC1 cells [6]; [9]): 700 nM

Compound: OC[C@H]1OC(c2nc3ccccc3[nH]2)[C@H](O)[C@@H]1O (stereo partly drawn) [Compound 13, D-Ribofuranosyl- benzimidazole]
- IC50 [1, 13]: ~8000 nM
- OHCs protected against cisplatin (For x%) [1]: (For 76%)
- Zebrafish IC50 [2]: No
- Zebrafish LD50 [3]: >75 µM
- HEI-OC1 LD50 (HEI-OC1 cells [4]; mouse, 22 h): >40 µM
- IC50 (HEI-OC1 cells [6]; [9]): 4000 nM

Compound: CN(C)CCOc1ccc(-c2cc(-c3ccc4c(c3)CC/C4=N\O)c(-c3ccncc3)o2)cc1 [Compound 14]
- HEI-OC1 LD50 (HEI-OC1 cells [4]; mouse, 22 h): >10 µM
- IC50 (HEI-OC1 cells [6]; [9]): 1300 nM

Compound: CN[C@H](C#Cc1c(F)ccc2c1/C(=C/c1[nH]ccc1OC)C(=O)N2)CO [Compound 15]
- HEI-OC1 LD50 (HEI-OC1 cells [4]; mouse, 22 h): >10 µM
- IC50 (HEI-OC1 cells [6]; [9]): 100 nM

Compound: O=C(Nc1n[nH]c2nc(-c3ccc(O)cc3)c(Br)cc12)C1CC1 [Compound 16]
- HEI-OC1 LD50 (HEI-OC1 cells [4]; mouse, 22 h): >40 µM
- IC50 (HEI-OC1 cells [6]; [9]): 800 nM

Compound: COc1cccc(-c2c[nH]c3c(N/N=C/c4ccncc4)ncnc23)c1 [Compound 17]
- HEI-OC1 LD50 (HEI-OC1 cells [4]; mouse, 22 h): >40 µM
- IC50 (HEI-OC1 cells [6]; [9]): 2100 nM

Compound: CC(C)COC(=O)c1ccc2[nH]c(O)c(/C=N/c3ccc(S(N)(=O)=O)cc3)c2c1 [Compound 18]
- HEI-OC1 LD50 (HEI-OC1 cells [4]; mouse, 22 h): >40 µM
- IC50 (HEI-OC1 cells [6]; [9]): 3400 nM

Compound: O=c1c2ccccc2[se]n1-c1ccccc1 [Ebselen, 2-phenyl-1,2-benzisoselenazol-3-one, reference compound]
- potency in protection against cisplatin (HEI-OC1 cells [6]; dose response): low potency

Compound: Cc1ccc(C(=O)Cn2c3c(sc2=N)CCCC3)cc1 [Pifithrin-α, reference compound]
- damage at protective doses (mouse cochlear explants; 20-100 μM): damage the hair cell stereocillia
- concentrations conferring protection from cisplatin-induced cell death (mouse cochlear explants; mouse cochlear explants): 20 to 100 µM
- concentration for full reduction of caspase-3/7 activity (HEI-OC1 cells [6]; 50 μM cisplatin): 34 µM
- IC50 (HEI-OC1 cells [6]; read-out: IC50, reduction of caspase-3/7 activity (caspase-3 cleavage), reference compound, 50 μM cisplatin): 17000 nM

Compound: Cc1ncc(-c2ccnc(Nc3ccc(S(C)(=O)=O)cc3)n2)n1C(C)C [SJZuo-19, AZD5438]
- Explant Cisplatin LD50 [1]: ~25 nM
- Explant Cisplatin LD50 ([5]; mouse, 24 h): < 1000 nM
- oral bioavailability, F [8]: 91%

Compound: O=C(NC1CCNCC1)c1n[nH]cc1NC(=O)c1c(Cl)cccc1Cl [SJZuo-20, AT7519]
- Explant Cisplatin LD50 [1]: ~25 nM
- Explant Cisplatin LD50 ([5]; mouse, 24 h): < 1000 nM
- oral bioavailability, F [8]: < 1%
- IC50 (HEI-OC1 cells [6]; [14]): 380 nM

Compound: N.N.[Cl][Pt][Cl] [cisplatin, reference compound]
- hair cells killed ([3]; 5 μM, 20 hrs, no protective compound): 91%
- death of outer hair cells (OHCs) ([5]; 50 μM, 24 hrs): ~40%

Compound: COC(=O)C[C@H](NC(=O)[C@H](C)NC(=O)[C@@H](NC(=O)OCc1ccccc1)C(C)C)C(=O)CF [zVAD-fmk] (Cbz-Val-Ala-Asp(OMe)-CH2F)
- IC50 (mouse cochlear explants; read-out: IC50, inhibition of cisplatin-induced cell death in the mouse cochlea): 200 nM

Compound: Cyanocobalamin (vitamin B12) [Compound 6]
- IC50 [1, 10]: ~21000 nM
- OHCs protected against cisplatin (For x%) [1]: (For 53%)
- HEI-OC1 LD50 (HEI-OC1 cells [4]; [11]): >40 µM
- Mouse Explant LD50 ([5]; P3 cochlear explants): >21 µM
- IC50 (HEI-OC1 cells [6]; [12]): 4200 nM

— patent publication US11446308B2, “Methods and compositions for the prevention and treatment of hearing loss” (St. Jude Children's Research Hospital, priority 2015, dated 2022)
